In ChEMBL document CHEMBL4024717, “Anthranilamide-based 2-phenylcyclopropane-1-carboxamides, 1,1'-biphenyl-4-carboxamides and 1,1'-biphenyl-2-carboxamides: Synthesis biological evaluation and mechanism of action” (Eur J Med Chem, 2017):
Active and inactive are the calls of the source. The rule behind the calls is not given here.

Tests used:
[1] = test system: K562; experiment: Growth inhibition of human K562 cells at 10 uM after 24 hrs by MTT assay relative to control; format: functional; details: K562, 24 h, read-out: GI
[2] = test system: K562; experiment: Cytotoxicity against human K562 cells after 48 hrs by MTT assay; format: functional, cell-based; details: K562, 48 h
[3] = test system: K562; experiment: Induction of apoptosis in human K562 cells assessed as ratio of procaspase-3 to beta actin level at 750 nM after 24 hrs by Western blot analysis (reference value: 1); format: functional
[4] = test system: K562; experiment: Induction of reactive oxygen species generation in human K562 cells at 0.75 to 2.5 uM after 48 hrs by H2DCFDA staining based fluorescence microscopic analysis; format: functional, cell-based
[5] = test system: K562; experiment: Induction of apoptosis in human K562 cells assessed as ratio of procaspase-3 to beta actin level at 2.5 uM after 24 hrs by Western blot analysis (reference value: 1); format: functional
[6] = Selectivity index, ratio of IC50 for human 16HBE cells to IC50 for human K562 cells; format: functional
[7] = Selectivity index, ratio of IC50 for human 16HBE cells to IC50 for human MDA-MB-231 cells; format: functional
[8] = test system: K562; experiment: Cell cycle arrest in human K562 cells assessed as accumulation at sub G0/G1 phase at 2.5 uM after 48 hrs by propidium iodide staining based flow cytometry (reference value: 1.1%); format: functional
[9] = test system: K562; experiment: Cell cycle arrest in human K562 cells assessed as accumulation at G0/G1 phase at 2.5 uM after 48 hrs by propidium iodide staining based flow cytometry (reference value: 67.4%); format: functional
[10] = test system: K562; experiment: Cell cycle arrest in human K562 cells assessed as accumulation at G2/M phase at 2.5 uM after 48 hrs by propidium iodide staining based flow cytometry (reference value: 17.7%); format: functional
[11] = test system: K562; experiment: Induction of morphological changes in human K562 cells assessed as reduction in cell volume at 0.75 to 2.5 uM after 24 hrs by light microscopic method; format: functional, cell-based
[12] = test system: K562; experiment: Cell cycle arrest in human K562 cells assessed as accumulation at sub G0/G1 phase at 750 nM after 48 hrs by propidium iodide staining based flow cytometry (reference value: 1.1%); format: functional
[13] = target: T1, c-Jun N-terminal kinase, JNK (Homo sapiens) (UniProt P45983+P53779+P45984); experiment: Induction of JNK phosphorylation in human K562 cells assessed as ratio of phosphorylated JNK to beta-tubulin at 750 nM after 48 hrs by Western blot analysis (reference value: 1); format: cell-based
[14] = test system: K562; experiment: Induction of apoptosis in human K562 cells assessed as cell shrinkage at 0.75 to 2.5 uM after 24 to 48 hrs by Hoechst 33342/DAPI staining based fluorescence microscopic analysis; format: functional
[15] = test system: K562; experiment: Induction of apoptosis in human K562 cells assessed as ratio of procaspase-3 to beta actin level at 2.5 uM after 48 hrs by Western blot analysis (reference value: 0.9); format: functional
[16] = test system: 16HBE14o-; experiment: Cytotoxicity against human 16HBE cells after 24 hrs by MTT assay; format: cell-based
[17] = Selectivity index, ratio of IC50 for human 16HBE cells to IC50 for human HT-29 cells; format: functional
[18] = target: Serine-protein kinase ATM (Homo sapiens) (UniProt Q13315); experiment: Activation of ATM phosphorylation in human K562 cells assessed as ratio of phosphorylated ATM to beta-tubulin level at 750 nM after 24 hrs by Western blot analysis (reference value: 0.2); format: cell-based
[19] = target: T1, c-Jun N-terminal kinase, JNK (Homo sapiens); experiment: Induction of JNK phosphorylation in human K562 cells assessed as ratio of phosphorylated JNK to beta-tubulin at 750 nM after 24 hrs by Western blot analysis (reference value: 1); format: cell-based
[20] = target: Serine-protein kinase ATM (Homo sapiens) (UniProt Q13315); experiment: Activation of ATM phosphorylation in human K562 cells assessed as ratio of phosphorylated ATM to beta-tubulin level at 2.5 uM after 48 hrs by Western blot analysis (reference value: 0.2); format: cell-based
[21] = test system: K562; experiment: Cell cycle arrest in human K562 cells assessed as accumulation at sub G0/G1 phase at 2.5 uM after 24 hrs by propidium iodide staining based flow cytometry (reference value: 3.1%); format: functional
[22] = test system: K562; experiment: Cell cycle arrest in human K562 cells assessed as accumulation at G2/M phase at 2.5 uM after 24 hrs by propidium iodide staining based flow cytometry (reference value: 13.3%); format: functional
[23] = target: Serine-protein kinase ATM (Homo sapiens) (UniProt Q13315); experiment: Activation of ATM phosphorylation in human K562 cells assessed as ratio of phosphorylated H2AX at S139 to beta-tubulin level at 2.5 uM after 24 hrs by Western blot analysis (reference value: 1); format: cell-based
[24] = test system: K562; experiment: Cell cycle arrest in human K562 cells assessed as accumulation at G0/G1 phase at 2.5 uM after 24 hrs by propidium iodide staining based flow cytometry (reference value: 68.8%); format: functional
[25] = test system: MDA-MB-231; experiment: Cytotoxicity against human MDA-MB-231 cells after 24 hrs by MTT assay; format: functional, cell-based; details: MDA-MB-231, 24 h
[26] = test system: K562; experiment: Induction of morphological changes in human K562 cells assessed as appearance of shrunken cytoplasm at 0.75 to 2.5 uM after 24 hrs by light microscopic method; format: functional, cell-based
[27] = test system: K562; experiment: Induction of apoptosis in human K562 cells assessed as DNA fragmentation at 0.75 to 2.5 uM after 24 to 48 hrs by Hoechst 33342/DAPI staining based fluorescence microscopic analysis; format: functional, cell-based
[28] = target: Serine-protein kinase ATM (Homo sapiens) (UniProt Q13315); experiment: Activation of ATM phosphorylation in human K562 cells assessed as ratio of phosphorylated ATM to beta-tubulin level at 750 nM after 48 hrs by Western blot analysis (reference value: 0.2); format: cell-based
[29] = target: T1, c-Jun N-terminal kinase, JNK (Homo sapiens); experiment: Induction of JNK phosphorylation in human K562 cells assessed as ratio of phosphorylated JNK to beta-tubulin at 2.5 uM after 48 hrs by Western blot analysis (reference value: 1); format: cell-based
[30] = target: Serine-protein kinase ATM (Homo sapiens) (UniProt Q13315); experiment: Activation of ATM phosphorylation in human K562 cells assessed as ratio of phosphorylated H2AX at S139 to beta-tubulin level at 750 nM after 24 hrs by Western blot analysis (reference value: 1); format: cell-based
[31] = target: Serine-protein kinase ATM (Homo sapiens) (UniProt Q13315); experiment: Activation of ATM phosphorylation in human K562 cells assessed as ratio of phosphorylated ATM to beta-tubulin level at 2.5 uM after 24 hrs by Western blot analysis (reference value: 0.2); format: cell-based
[32] = test system: K562; experiment: Cytotoxicity against human K562 cells after 24 hrs by MTT assay; format: functional, cell-based; details: K562, 24 h
[33] = target: Serine-protein kinase ATM (Homo sapiens) (UniProt Q13315); experiment: Activation of ATM phosphorylation in human K562 cells assessed as ratio of phosphorylated H2AX at S139 to beta-tubulin level at 2.5 uM after 48 hrs by Western blot analysis (reference value: 0.8); format: cell-based
[34] = test system: K562; experiment: Induction of reactive oxygen species generation in human K562 cells at 0.75 to 2.5 uM after 5 to 24 hrs by H2DCFDA staining based fluorescence microscopic analysis; format: functional, cell-based
[35] = test system: K562; experiment: Cell cycle arrest in human K562 cells assessed as accumulation at G0/G1 phase at 750 nM after 48 hrs by propidium iodide staining based flow cytometry (reference value: 67.4%); format: functional
[36] = test system: K562; experiment: Cell cycle arrest in human K562 cells assessed as accumulation at G2/M phase at 750 nM after 48 hrs by propidium iodide staining based flow cytometry (reference value: 17.7%); format: functional
[37] = test system: HT-29; experiment: Cytotoxicity against human HT-29 cells after 24 hrs by MTT assay; format: functional, cell-based; details: HT-29, 24 h
[38] = test system: K562; experiment: Induction of morphological changes in human K562 cells assessed as cellular fragmentation at 0.75 to 2.5 uM after 48 hrs by light microscopic method; format: functional, cell-based
[39] = test system: K562; experiment: Cell cycle arrest in human K562 cells assessed as accumulation at G0/G1 phase at 750 nM after 24 hrs by propidium iodide staining based flow cytometry (reference value: 68.8%); format: functional
[40] = test system: K562; experiment: Induction of apoptosis in human K562 cells assessed as ratio of procaspase-3 to beta actin level at 750 nM after 48 hrs by Western blot analysis (reference value: 0.9); format: functional
[41] = test system: K562; experiment: Induction of apoptosis in human K562 cells assessed as chromatin condensation at 0.75 to 2.5 uM after 24 to 48 hrs by Hoechst 33342/DAPI staining based fluorescence microscopic analysis; format: functional, cell-based
[42] = test system: K562; experiment: Cell cycle arrest in human K562 cells assessed as accumulation at sub G0/G1 phase at 750 nM after 24 hrs by propidium iodide staining based flow cytometry (reference value: 3.1%); format: functional
[43] = test system: K562; experiment: Induction of morphological changes in human K562 cells assessed as reduction in cell number at 0.75 to 2.5 uM after 24 hrs by light microscopic method; format: functional, cell-based
[44] = target: Serine-protein kinase ATM (Homo sapiens) (UniProt Q13315); experiment: Activation of ATM phosphorylation in human K562 cells assessed as ratio of phosphorylated H2AX at S139 to beta-tubulin level at 750 nM after 48 hrs by Western blot analysis (reference value: 0.8); format: cell-based
[45] = target: T1, c-Jun N-terminal kinase, JNK (Homo sapiens); experiment: Induction of JNK phosphorylation in human K562 cells assessed as ratio of phosphorylated JNK to beta-tubulin at 2.5 uM after 24 hrs by Western blot analysis (reference value: 1); format: cell-based
[46] = test system: K562; experiment: Cell cycle arrest in human K562 cells assessed as accumulation at G2/M phase at 750 nM after 24 hrs by propidium iodide staining based flow cytometry (reference value: 13.3%); format: functional

Chain of Serine-protein kinase ATM (Homo sapiens) (Q13315 whole entry): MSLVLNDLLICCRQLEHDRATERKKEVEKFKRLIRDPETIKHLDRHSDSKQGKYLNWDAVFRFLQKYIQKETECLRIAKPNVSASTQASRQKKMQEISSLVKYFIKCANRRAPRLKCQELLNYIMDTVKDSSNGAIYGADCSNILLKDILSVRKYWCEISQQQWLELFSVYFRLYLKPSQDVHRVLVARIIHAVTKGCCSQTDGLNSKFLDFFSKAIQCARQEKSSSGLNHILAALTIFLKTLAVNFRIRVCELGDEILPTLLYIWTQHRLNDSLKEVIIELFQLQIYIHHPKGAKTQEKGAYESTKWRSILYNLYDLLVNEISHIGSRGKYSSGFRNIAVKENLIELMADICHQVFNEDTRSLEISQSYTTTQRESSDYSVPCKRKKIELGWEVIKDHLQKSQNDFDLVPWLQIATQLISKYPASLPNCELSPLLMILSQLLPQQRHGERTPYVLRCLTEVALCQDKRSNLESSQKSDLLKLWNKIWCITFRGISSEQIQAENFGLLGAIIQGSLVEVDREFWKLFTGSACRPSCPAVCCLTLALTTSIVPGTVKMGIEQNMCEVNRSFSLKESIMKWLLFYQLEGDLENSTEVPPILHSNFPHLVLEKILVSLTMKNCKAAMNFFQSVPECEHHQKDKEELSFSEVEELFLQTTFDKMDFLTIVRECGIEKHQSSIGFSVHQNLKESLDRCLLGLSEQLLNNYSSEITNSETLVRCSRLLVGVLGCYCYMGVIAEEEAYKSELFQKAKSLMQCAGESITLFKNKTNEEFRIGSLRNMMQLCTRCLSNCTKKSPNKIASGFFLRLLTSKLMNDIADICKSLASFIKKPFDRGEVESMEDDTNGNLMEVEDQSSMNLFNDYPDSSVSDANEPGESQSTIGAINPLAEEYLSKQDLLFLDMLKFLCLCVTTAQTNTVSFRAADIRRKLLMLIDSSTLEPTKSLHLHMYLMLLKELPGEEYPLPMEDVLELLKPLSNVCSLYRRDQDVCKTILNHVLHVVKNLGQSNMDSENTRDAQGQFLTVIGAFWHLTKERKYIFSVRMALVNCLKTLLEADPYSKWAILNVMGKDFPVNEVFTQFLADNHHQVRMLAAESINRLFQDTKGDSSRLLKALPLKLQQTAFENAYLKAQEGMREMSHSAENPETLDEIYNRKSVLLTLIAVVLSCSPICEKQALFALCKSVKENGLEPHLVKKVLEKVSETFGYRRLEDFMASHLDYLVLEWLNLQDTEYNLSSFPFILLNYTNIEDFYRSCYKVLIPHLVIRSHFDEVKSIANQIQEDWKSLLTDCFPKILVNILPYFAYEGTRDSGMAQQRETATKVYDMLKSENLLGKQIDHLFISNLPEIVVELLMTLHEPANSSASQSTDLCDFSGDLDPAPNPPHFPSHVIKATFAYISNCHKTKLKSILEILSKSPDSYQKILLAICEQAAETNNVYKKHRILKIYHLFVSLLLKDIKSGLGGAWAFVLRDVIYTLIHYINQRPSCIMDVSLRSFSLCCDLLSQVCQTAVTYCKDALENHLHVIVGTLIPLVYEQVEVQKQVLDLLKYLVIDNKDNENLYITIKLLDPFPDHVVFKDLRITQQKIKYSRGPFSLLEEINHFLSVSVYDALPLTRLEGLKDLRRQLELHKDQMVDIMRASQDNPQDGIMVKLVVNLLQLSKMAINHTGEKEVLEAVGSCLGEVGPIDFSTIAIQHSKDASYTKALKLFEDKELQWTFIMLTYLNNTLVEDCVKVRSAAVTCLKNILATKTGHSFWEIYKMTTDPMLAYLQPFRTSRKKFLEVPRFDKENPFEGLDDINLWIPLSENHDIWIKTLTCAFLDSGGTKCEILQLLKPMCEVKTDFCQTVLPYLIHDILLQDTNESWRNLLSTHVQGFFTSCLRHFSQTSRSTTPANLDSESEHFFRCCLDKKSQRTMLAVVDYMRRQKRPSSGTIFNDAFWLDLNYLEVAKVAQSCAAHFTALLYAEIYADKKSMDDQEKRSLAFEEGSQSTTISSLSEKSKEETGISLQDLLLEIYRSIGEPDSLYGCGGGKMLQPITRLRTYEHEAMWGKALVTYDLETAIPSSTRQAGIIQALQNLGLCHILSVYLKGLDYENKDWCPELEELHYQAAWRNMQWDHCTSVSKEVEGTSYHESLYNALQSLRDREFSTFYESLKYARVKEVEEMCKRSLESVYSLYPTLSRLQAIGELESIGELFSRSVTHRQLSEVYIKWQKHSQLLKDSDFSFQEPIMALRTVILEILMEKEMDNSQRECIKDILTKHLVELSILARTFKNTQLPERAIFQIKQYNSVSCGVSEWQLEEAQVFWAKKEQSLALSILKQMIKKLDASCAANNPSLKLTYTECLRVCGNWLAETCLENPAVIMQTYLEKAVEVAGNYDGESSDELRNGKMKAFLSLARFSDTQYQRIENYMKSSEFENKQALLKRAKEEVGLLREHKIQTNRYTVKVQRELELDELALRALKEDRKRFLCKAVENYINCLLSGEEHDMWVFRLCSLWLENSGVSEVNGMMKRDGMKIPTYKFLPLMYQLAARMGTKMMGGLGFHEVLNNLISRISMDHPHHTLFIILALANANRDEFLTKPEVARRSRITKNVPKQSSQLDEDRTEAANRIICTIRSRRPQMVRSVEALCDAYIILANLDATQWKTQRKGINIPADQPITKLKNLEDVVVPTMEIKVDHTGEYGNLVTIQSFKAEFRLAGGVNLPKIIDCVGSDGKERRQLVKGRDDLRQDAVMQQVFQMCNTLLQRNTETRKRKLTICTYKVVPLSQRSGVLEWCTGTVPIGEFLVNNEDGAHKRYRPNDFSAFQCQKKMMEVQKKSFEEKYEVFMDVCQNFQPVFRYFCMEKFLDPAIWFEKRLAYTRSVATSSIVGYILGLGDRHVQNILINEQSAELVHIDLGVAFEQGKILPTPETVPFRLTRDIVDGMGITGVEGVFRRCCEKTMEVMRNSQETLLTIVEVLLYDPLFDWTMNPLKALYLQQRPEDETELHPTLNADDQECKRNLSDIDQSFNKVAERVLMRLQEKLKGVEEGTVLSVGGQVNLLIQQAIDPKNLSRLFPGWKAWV

## COc1ccc(NC(=O)c2ccc(-c3ccccc3)cc2)c(C(N)=O)c1
[1]
  inhibition of growth at 10 µM: 29.2%

## NC(=O)c1cc(Cl)ccc1NC(=O)[C@@H]1C[C@H]1c1ccccc1
[1]
  inhibition of growth at 10 µM: 24%

## NC(=O)c1ccccc1NC(=O)c1ccc(-c2ccccc2)cc1
[1]
  inhibition of growth at 10 µM: 21.6%

## NC(=O)c1cc(I)ccc1NC(=O)[C@@H]1C[C@H]1c1ccccc1
[2]
  IC50: 10 µM
[1]
  inhibition of growth at 10 µM: 25%

## NC(=O)c1cc(I)ccc1NC(=O)c1ccc(-c2ccccc2)cc1
[2]
  IC50: 15 µM
[1]
  inhibition of growth at 10 µM: 15%

## COc1ccc(NC(=O)[C@@H]2C[C@H]2c2ccccc2)c(C(N)=O)c1
[1]
  inhibition of growth at 10 µM: 26.7%

## NC(=O)c1cc(I)ccc1NC(=O)c1ccccc1-c1ccccc1
[3]
  Ratio: 0.8
[4]
  Activity: Active
[5]
  Ratio: 0.8
[6]
  Ratio IC50: 60
[7]
  Ratio IC50: 3
[2]
  IC50: 0.5 µM
[8]
  Activity: 26.2%
[9]
  Activity: 50.5%
[10]
  Activity: 13.4%
[11]
  Activity: Active
[12]
  Activity: 4%
[13]
  Ratio: 1.2
[14]
  Activity: Active
[15]
  Ratio: 0.5
[16]
  IC50: 30 µM
[17]
  Ratio IC50: 3
[18]
  Ratio: 1
[19]
  Ratio: 0.8
[20]
  Ratio: 0.9
[21]
  Activity: 2.2%
[22]
  Activity: 74.6%
[23]
  Ratio: 2.1
[24]
  Activity: 14.9%
[25]
  IC50: 10 µM
[1]
  inhibition of growth at 10 µM: 85%
[26]
  Activity: Active
[27]
  Activity: Active
[28]
  Ratio: 0.5
[29]
  Ratio: 1.4
[30]
  Ratio: 1.5
[31]
  Ratio: 2.5
[32]
  IC50: 0.5 µM
[33]
  Ratio: 1.6
[34]
  Activity: inactive
[35]
  Activity: 48.6%
[36]
  Activity: 30.5%
[37]
  IC50: 10 µM
[38]
  Activity: Active
[39]
  Activity: 54.9%
[40]
  Ratio: 0.5
[41]
  Activity: Active
[42]
  Activity: 2.7%
[43]
  Activity: Active
[44]
  Ratio: 2.2
[45]
  Ratio: 1.2
[46]
  Activity: 37.1%

## NC(=O)c1cc(Cl)ccc1NC(=O)c1ccc(-c2ccccc2)cc1
[1]
  inhibition of growth at 10 µM: 45%

## Cc1ccc(NC(=O)c2ccc(-c3ccccc3)cc2)c(C(N)=O)c1
[1]
  inhibition of growth at 10 µM: 39.7%

## NC(=O)c1cc(Cl)ccc1NC(=O)c1ccccc1-c1ccccc1
[1]
  inhibition of growth at 10 µM: 47.3%

## COc1cc2c(c(OC)c1OC)-c1ccc(OC)c(=O)cc1[C@@H](NC(C)=O)CC2 [COLCHICINE]
[1]
  inhibition of growth at 10 µM: 63.6%

## NC(=O)c1ccccc1NC(=O)c1ccccc1-c1ccccc1
[1]
  inhibition of growth at 10 µM: 44.6%

## COc1cc(NC(=O)c2ccccc2-c2ccccc2)c(C(N)=O)cc1OC
[1]
  inhibition of growth at 10 µM: 46%

## COc1cc(NC(=O)c2ccc(-c3ccccc3)cc2)c(C(N)=O)cc1OC
[1]
  inhibition of growth at 10 µM: 48%

## COc1cc(NC(=O)[C@@H]2C[C@H]2c2ccccc2)c(C(N)=O)cc1OC
[1]
  inhibition of growth at 10 µM: 26.7%

## COc1ccc(NC(=O)c2ccccc2-c2ccccc2)c(C(N)=O)c1
[1]
  inhibition of growth at 10 µM: 37%

## Cc1ccc(NC(=O)[C@@H]2C[C@H]2c2ccccc2)c(C(N)=O)c1
[1]
  inhibition of growth at 10 µM: 15%

## Cc1ccc(NC(=O)c2ccccc2-c2ccccc2)c(C(N)=O)c1
[1]
  inhibition of growth at 10 µM: 48.9%

## NC(=O)c1ccccc1NC(=O)[C@@H]1C[C@H]1c1ccccc1
[1]
  inhibition of growth at 10 µM: < 10%
